Assay results: patent US11911442B2, “Use of soluble pro(renin) receptor to treat metabolic disorders and related conditions” (priority 2017, dated 2024)

Assays:
C57BL6 mice = assay: TO901317-induced diabetes insipidus in C57/BL6 mice; type: in vivo, mouse
Protocol: FIGS. 9A-9I show an initial characterization of diuretic and PRR-inhibitory actions of TO901317 in vivo and in vitro. […] The mice receiving vehicle treatment served as a control. At the end of experiment, 24-h urine collection was performed, followed by analysis of urinary sPRR excretion by ELISA and renal PRR expression by immunoblotting. (A) Urine output (n=30 mice per group). (B) Urinary osmolality (n=15 mice per group). (C) Immunoblotting analysis of renal PRR expression (n=15 mice per group). (D) Densitometric analysis of the immunoblot in C. (E) ELISA analysis of urinary sPRR (n=8 mice per group). (F-I) The effect of TO901317 on PRR expression in cultured CD cells. mpkCCD cells were exposed to vehicle or 10 μM TO901317 for 24 h. The cell lysates were subjected to immunoblotting analysis of PRR protein expression, and the medium was assayed for sPRR concentration by using ELISA and normalized by protein content. In a separate experiment, the cells were transfected with a PRR-luciferase construct, allowed to grown to confluence, and then were treated with vehicle or 10 μM TO901317 for 24 h. (F) Immunoblotting analysis of PRR (n=15 per group). (G) Densitometric analysis of the immunoblot in […]. (H) ELISA analysis of medium sPRR (n=10 per group). (I) The luciferase assay (n=5 per group).
(A) Urine output (n=8 mice per group). (B) Water intake (n=8 mice per group). (C) Water balance (n=8 mice per group). (D) Urinary osmolality (n=8 mice per group). (E) Het (n=8 mice per group).
AQP2 expression was analyzed by immunoblotting and immunostaining. Urinary renin activity was determined by measuring AngI generation, and urinary prorenin/renin concentration was determined by ELISA. (A) Immunoblotting analysis of AQP2 expression (n=15 mice per group). (B) Densitometric analysis of the immunoblots in A. (C) Urinary renin activity (n=8 mice per group). (D) Urinary prorenin/renin excretion (n=8 mice per group). (E) Schematic illustration of the mechanism by which the LXR agonist TO091317 (TO) suppresses PRR transcription and induces DI. LXRs bound to TO091317 function as a […] repressor for the PRR gene, leading to a reduced PRR/sPRR level that decreases AQP2 expression, ultimately causing DI.
Besides their well-recognized role in regulating lipid and glucose metabolism, LXRs are potential regulators of the RAS and fluid balance. […] In the initial experiment, the effects of the LXR agonist TO901317 on fluid homeostasis and on renal PRR and urinary renin levels were examined in mice. A 7-d treatment with TO901317 in C57BL6 mice reduced body weight (32.36±0.63 vs. 28.61±0.36 g, P<0.05) and food intake (4.08±0.19 vs. 3.54±0.15 g, P<0.05), although to a lesser extent. […] The expression of renal PRR protein and the excretion of urinary sPRR were examined by immunoblotting and ELISA, respectively.
In the subsequent experiment, a more detailed analysis of TO901317-induced DI was performed and the causal role of suppressed renal PRR was further examined in this phenomenon. This experiment comprised three groups: control, TO901317-treated, and TO901317+sPRRHis-treated mice. […] Of note, water balance was determined by subtracting urine volume from water intake. AQP2, a major water channel on the apical membrane of the CD, plays a key role in determining urine-concentrating capability. […] ELISA was also performed to determine the prorenin/renin concentration in the urine. Although urinary prorenin/renin excretion was suppressed by TO901317, it was unaffected by sPRRHis (FIG. 11D). […] FIG. 11E provides a schematic illustration of the mechanism by which TO901317 induces DI. Upon binding to TO901317, LXRs function as a transcriptional repressor to inactivate PRR transcription. The reduced PRR/sPRR levels down-regulate AQP2 expression, leading to DI.
Male 10- to 12-wk-old SD rats and C57BL6 mice were purchased from Charles River Laboratories and the Jackson Laboratory, respectively. All animals […] 50 mg kg body weight-1·d-1. […]

PRR = PRR protein expression and sPRR release in mpkCCD cells; type: cell-based, murine; details: 10 μM, 24 h
Protocol: The effect of […] on PRR expression was tested in […] cells. These cells were grown to confluence in six-well plates. After 12-h serum deprivation, the cells were treated with vehicle or 10 μM TO901317 for 24 h and then were harvested for analysis of PRR expression and sPRR release. In a separate experiment, […] cells at 50% density were transiently transfected with a construct containing the luciferase gene under the control of the 2,016-bp 5' flanking region of the PRR gene. Upon confluence, the transfected cells were treated for 24 h with vehicle or 10 μM TO901317 and then were harvested for analysis of luciferase activity. Urinary or medium sPRR was determined using a commercially sPRR enzyme immunoassay (EIA) kit (catalog no. JP27782; Immuno-Biological Laboratories) according to the manufacturer's instructions. Renal tissues were lysed and subsequently sonicated. Protein concentrations were determined using Coomassie reagent. Forty micrograms of protein from each sample were denatured in boiling water, separated by SDS/PAGE, and transferred onto nitrocellulose membranes. Blots were blocked 1 h with 5% nonfat dry milk in Tris-buffered saline (TBS), followed by overnight incubation with primary antibody. […] The blots were quantitated by using Image-Pro Plus (Media Cybernetics). […]

pGL3-PRR = assay: PRR-luciferase (pGL3-PRR) reporter assay in mpkCCD cells; type: cell-based, murine; details: transfected mpkCCD cells, 10 μM, 24 h
Protocol: The effect of […] on PRR expression was tested in […] cells. These cells were grown to confluence in six-well plates. After 12-h serum deprivation, the cells were treated with vehicle or 10 μM TO901317 for 24 h and then were harvested for analysis of PRR expression and sPRR release. In a separate experiment, […] cells at 50% density were transiently transfected with a construct containing the luciferase gene under the control of the 2,016-bp 5' flanking region of the PRR gene. Upon confluence, the transfected cells were treated for 24 h with vehicle or 10 μM TO901317 and then were harvested for analysis of luciferase activity. Genomic DNA was extracted from rat tail using a Tissue DNA kit ([…]-01; Promega). A 2,016-bp fragment of the 5' flanking region of the PRR gene (GenBank accession no. NM_001007091; 1,941±75 bp) was amplified from the rat genomic DNA by PCR and subcloned to the pGL3-Basic reporter vector (Promega) using NheI and BgIII restriction sites; this construct was termed “pGL3-PRR.” A 2,084-bp fragment of the 5' flanking region of the AQP2 gene (GenBank accession no. […] Qiagen). […] The vehicle-treated group served as a control. The luciferase activities were measured using a luciferase assay system (Promega), and luminescence was detected by using an illuminometer (BMG FLUOstar OPTIMA).

SMILES: O=S(=O)(c1ccccc1)N(CC(F)(F)F)c1ccc(C(O)(C(F)(F)F)C(F)(F)F)cc1 [TO901317]
- urine output, water intake, water balance, urinary osmolality, Hct (C57BL6 mice; C57/BL6 mice, TO901317 alone, 7 d): polyuria, polydipsia, decreased water balance, hypoosmotic urine, and plasma volume contraction
- urinary osmolality (C57BL6 mice; C57BL6 mice, 7-d treatment): hypoosmotic urine
- urine output (C57BL6 mice; C57BL6 mice, 7-d treatment): severe polyuria
- urinary sPRR excretion (C57BL6 mice; C57BL6 mice, 7-d treatment, ELISA): suppressed consistently
- renal PRR expression (C57BL6 mice; C57BL6 mice, 7-d treatment, immunoblotting): suppressed consistently
- food intake (C57BL6 mice; C57BL6 mice, 7-d treatment, control 4.08±0.19, P<0.05): 3.54 ± 0.15 g
- body weight (C57BL6 mice; C57BL6 mice, 7-d treatment, control 32.36±0.63, P<0.05): 28.61 ± 0.36 g
- urinary renin activity (generation of AngI) (C57BL6 mice; TO901317 alone, 7 d): suppressed
- urinary prorenin/renin excretion (C57BL6 mice; TO901317 alone, 7 d, ELISA): suppressed
- renal AQP2 expression (C57BL6 mice; TO901317 alone, 7 d, immunoblotting): significantly reduced
- reduction of medium sPRR (PRR; ELISA): 60%
- reduction of PRR protein expression (PRR; immunoblotting): 85%
- suppression of luciferase activity (pGL3-PRR) (pGL3-PRR): 76%
